Results on one compound are retold here after paper PMC6237300, “Influenza B viruses circulated during last 5 years in Mongolia” (PLoS ONE, 2018).

In this test the target is NA of influenza B clinical isolates (Influenza B virus, UniProt A0A1X9RX69). Type of test: biochemical.

On to `CCC(CC)[C@H](NC(C)=O)[C@@H]1[C@H](O)[C@@H](C(=O)O)C[C@H]1N=C(N)N` [Peramivir, peramivir], for which it took 0.47 ± 0.4 nM to reach half-maximal inhibition (IC50).

What is called IC50 is the concentration that gives 50% inhibition. Higher therefore signals weaker potency.
